The record followed here is publication PMC5946847, “Synthesis and biological evaluation of aryl-oxadiazoles as inhibitors of Mycobacterium tuberculosis” (Bioorganic & Medicinal Chemistry Letters, 2018).

Data set [1] is described as follows: Mouse microsomal stability. Format: in vitro ADME. The conditions noted are these: mouse, microsomes; for Mouse microsome (% metabolized in 30 min): 0.5 h, 2 μM. How it is done:
4. Method for microsomal stability:
To determine microsomal turnover, test compounds were incubated (2 μM) with liver microsomes in the presence of NADPH, and loss of parent molecule was measured by LC-MS after 30 min.

Data set [2] in a line: Mouse pharmacokinetic studies (intravenous and oral). Format: in vivo. The conditions noted are these: for AUC0–24: 24 h. On the procedure:
5. Method for PK studies:
In Vivo Pharmacokinetic Studies. Compounds 1, 2 and 3 were administered intravenously at 1 mg/kg (1 ml/kg) in Dimethyl acetamide 25%v/v, ethanol 15%v/v, propylene glycol 10%v/v, 2 pyrrolidone 25%v/v, PW 25%v/v in fed animal, or orally at 10 mg/kg (10 ml/kg) in Hydroxyethylcellulose 1% w/v/polysorbate 80 0.25% v/v/Antifoam 1510-US 0.05% v/v/PW (probe sonicate), in fasted animals, respectively. Additional study was conducted for compound 2 wherein the animals were dosed 1-aminobenzotriazole (100 mpk) intraperitoneally one hour prior to dosing compound 2 either intravenously (fed animals) at 1 mg/kg or orally (fasted animals) at 10 mg/kg. Three animals were dosed per study arm.
Serial blood samples were collected at 0.08, 0.25, 0.75, 2, 4, 8, 24 for intravenous and 0.25, 0.5, 1, 2, 4, 8, 24 for oral administration. The blood was collected via a tail snip directly into a 20-μL EDTA-coated capillary and immediately spotted onto a Whatman DMPK-C dried blood sample (DBS) card and analysed using LC-MS/MS, as described previously.^7 Noncompartmental pharmacokinetic parameters were calculated using Watson version 7.4 (Thermo Scientific, Waltham, MA).

The next data set can be described thus: in vitro. Format: in vitro ADME. The conditions noted are these: mouse, plasma. From the text:
Fraction unbound in mouse plasma:^8

Data set [3] has as its system M. tuberculosis H37Rv expressing DsRed. Description: microbe, parasite or virus in culture. Format: cell-based. The conditions noted are these: Mycobacterium tuberculosis, average ± standard deviation for at least 2 runs, read-out: 7H9-Ty-BT MIC.
The test system is the same in data set [4]. Nature of the data set: microbe, parasite or virus in culture. Format: cell-based. The conditions noted are these: Mycobacterium tuberculosis, read-out: 7H9-Tw-OADC MIC.
In a further data set the test system is Vero cells (ATCC CCL81). Description: Cytotoxicity in Vero cells (CellTiter-Glo). The conditions noted are these: Chlorocebus sabaeus, 48 h, 2 days. It counts as cell-based. How it is done: Vero cells (ATCC® CCL81) were grown in DMEM, high glucose, GlutaMAX™ (Invitrogen), 10% FBS, 50 units/mL penicillin, and 50 µg/mL streptomycin, seeded as 1200 cells per well in 384-well plates and incubated for 24 h at 37 °C with 5% CO2. Compounds were added as a 3-fold serial dilution series and cells incubated for 2 days at 37 °C with 5% CO2. Viability was measured using CellTiter-Glo® Reagent (Promega).

≈ marks a conversion by molar mass, not a printed value. Where two headings read alike, the source gives them in different places.

As to `c1csc(-c2nnc(Cc3cccc4ccccc34)o2)c1` [Compound 1], in data set [1], the CLint scaled at 2 μM is 3310 mL/min/kg and the “Mouse microsome (% metabolized in 30 min)” value is 99%. Further, in data set [2] (in vivo, iv, 1 mg/kg), the “AUC,u0–24” value turned out to be 32 ng·h/mL, the “CL,u” value was 1727 mL/min/kg, the Cl was 19 mL/min/kg and the Vdss is listed as 0.9 L/kg. In data set [2] (in vivo, iv, 1 mg/kg, AUC0–24), this compound showed an AUC(0-t) of 2900 ng·h/mL. Also, in data set [2] (in vivo, po, 10 mg/kg), the Cmax amounted to 19 ng/mL, the “Cmax,u” value was determined as 0.2 ng/mL and the Tmax was found to be 2.75 h. Besides, in data set [2] (in vivo, po, 10 mg/kg, AUC0–24), the AUC(0-t) at 24 h amounted to 31 ng·h/mL. Moreover, the t1/2 in data set [2] (intravenous 1 mg/kg) worked out at 1.2 h. For the same compound, the fraction unbound at 4.5 h, 1 µM in “in vitro” is 0.011. In addition, in the data set “physchem” (pH 7.4), the solubility was under 1 µg/mL.

As to `CN(Cc1nnc(-c2ccco2)o1)Cc1c(F)cccc1Cl.O=C(O)/C=C\C(=O)O` [Compound 2 maleate salt], the “Aqueous solubility at pH 6” value (pH 6) was 0.687 mg/mL. In addition, the “Aqueous solubility at pH 7.4” value (pH 7.4) stood at 0.717 mg/mL.

Consider `CN(Cc1nnc(-c2ccco2)o1)Cc1c(F)cccc1Cl` [Compound 2], for which, in data set [1], the CLint scaled at 2 μM is 1350 mL/min/kg and the “Mouse microsome (% metabolized in 30 min)” value worked out at 99%. Also, in data set [2] (in vivo, iv, 1 mg/kg), the “AUC,u0–24” value worked out at 37 ng·h/mL, the “CL,u” value amounted to 455 mL/min/kg, the Cl amounted to 56 mL/min/kg and the Vdss came out at 1.1 L/kg. Besides, the “AUC0–24” value in data set [2] (in vivo, iv, 1 mg/kg) turned out to be 300 ng·h/mL. In data set [2] (in vivo, po, 10 mg/kg), the Cmax was determined as 31 ng/mL, the “Cmax,u” value was determined as 3.8 ng/mL, the “Increase of oral exposure when co-administered with ABT” value is on record as over 10 fold and the Tmax was 0.25 h. In addition, in data set [2] (in vivo, po, 10 mg/kg), the “AUC0–24” value amounted to 48 ng·h/mL. In data set [2] (intravenous 1 mg/kg), this compound returned a t1/2 of 0.3 h. Also, the half-life in data set [2] (whole blood, intravenous 1 mg/kg, co-administered with ABT (100 mg/kg, 1 h pre-dose)) is 1.7 h. For the same compound, the unbound share (fraction unbound) at 4.5 h, 1 µM in “in vitro” was 0.123. In the data set “physchem” (pH 6), this compound had a solubility of 49 µg/mL (≈ 152 µM). Moreover, the solubility in the data set “physchem” (pH 7.4) came to 77 µg/mL (≈ 239 µM).

For `CC1CCc2ccccc2N1Cc1nc(-c2ccsc2)no1` (stereo not shown) [Compound 3], in data set [1], the CLint scaled at 2 μM worked out at 1910 mL/min/kg and the “Mouse microsome (% metabolized in 30 min)” value was 65%. Also, in data set [2] (in vivo, iv, 1 mg/kg), the “AUC,u0–24” value worked out at 6 ng·h/mL, the “CL,u” value is 2733 mL/min/kg, the Cl is reported as 41 mL/min/kg and the Vdss is listed as 6.3 L/kg. For the same compound, the AUC(0-t) at 24 h in data set [2] (in vivo, iv, 1 mg/kg, AUC0–24) stood at 430 ng·h/mL. Besides, in data set [2] (in vivo, po, 10 mg/kg), the highest concentration (Cmax) came to 9 ng/mL, the “Cmax,u” value was 0.1 ng/mL and the Tmax is 0.25 h. Besides, the AUC(0-t) at 24 h in data set [2] (in vivo, po, 10 mg/kg, AUC0–24) turned out to be 10 ng·h/mL. This compound also returned a t1/2 in data set [2] (intravenous 1 mg/kg) of 2.9 h. This compound returned a fraction unbound in the data set “in vitro” of under 0.015. Further, in “physchem” (pH 7.4), the concentration in solution (solubility) was 5 µg/mL (≈ 16.1 µM).

Take `c1csc(-c2nnc(CN3Cc4ccccc4C3)o2)c1` [Compound 38]: the MIC in data set [3] is 6.7 ± 1.7 µM (≈ 1.9 µg/mL); in data set [4] it was over 20 µM. The same compound yielded an IC50 with Vero cells (ATCC CCL81) of over 100 µM. Besides, the “Mouse microsome (% metabolized in 30 min)” value in data set [1] is on record as 99%. The same compound had a solubility in “physchem” (pH 7.4) of 12 µg/mL (≈ 42.3 µM).

Take `c1ccc(-c2nnc(CN3Cc4ccccc4C3)o2)cc1` [Compound 39]: the MIC in data set [3] is 7.5 ± 3.5 µM (≈ 2.08 µg/mL); in data set [4], over 20 µM. The IC50 in the data set with Vero cells (ATCC CCL81) was over 100 µM. Besides, the “Mouse microsome (% metabolized in 30 min)” value in data set [1] came out at 98%. Moreover, in “physchem” (pH 7.4), the solubility worked out at 20 µg/mL (≈ 72.1 µM).

For the compound `c1ccc(C2CCCN2Cc2nnc(-c3cccs3)o2)cc1` (stereo not shown) [Compound 40], the MIC is 9.9 ± 2.1 µM (≈ 3.08 µg/mL) in data set [3] and over 20 µM in data set [4]. In the data set on Vero cells (ATCC CCL81), this compound showed an IC50 of 50 µM. The “Mouse microsome (% metabolized in 30 min)” value in data set [1] turned out to be 100%. In the data set “physchem” (pH 7.4), this compound registered a solubility of 50 µg/mL (≈ 161 µM).

As to `c1ccc(-c2nnc(CN3CCCC3c3ccccc3)o2)cc1` (stereo not shown) [Compound 41], the figures for the MIC in data set [3] and in data set [4] were 8.3 ± 1.4 µM (≈ 2.53 µg/mL) and over 20 µM, respectively. The same compound had an IC50 with Vero cells (ATCC CCL81) of over 100 µM. Moreover, the “Mouse microsome (% metabolized in 30 min)” value in data set [1] stood at 99%. The compound also came in with a solubility in the data set “physchem” (pH 7.4) of 34 µg/mL (≈ 111 µM).
